Among the data in patent US20040023994A1 (priority 2002, published 2004) are TGI, GI50 and CC50 values, retold here.

Where two headings read alike, the source gives them in different places.

Data set [1] deals with DU-145. It counts as cell-based. The note with it: DU-145, Prostate, 48 h.
Data set [2] concerns TK-10. It counts as cell-based. The note with it: TK-10, Renal, 48 h.
Data set [3] has as its system MDA-MB-435. Particulars: for CC50: read-out: LC50.
Data set [4] deals with HL-60(TB). Kind of data set: cells. The note with it: Homo sapiens, HL-60, 48 h.
For data set [5], the system named is NCI-H460. The note with it: for CC50: read-out: LC50.
In data set [6] the test system is RPMI-8226. The note with it: for CC50: read-out: LC50.
In data set [7] the test system is SW-620. Particulars: for CC50: read-out: LC50.
The subject of data set [8] is MALME-3M.
In data set [9] the test system is NCI-H522. The note with it: NCI-H522, Non-Small Cell Lung, 48 h.
[10] abbreviates: Homo sapiens, read-out: LC50 (the source's name).
Setting [11] is: NCI-H460, Non-Small Cell Lung, 48 h.

For `CC(=O)C=CSc1ncnc2nc[nH]c12` [cis-AVTP, 6-(2-acetylvinylthio) purine], the TGI in [1] is 3970 nM; in [2], 640 nM; in [3] (MDA-MB-435, Breast, 48 h), 2750 nM; in data set [5] (setting [11]) it was 8710 nM; in [6] (RPMI-8226, Leukemia, 48 h), 1670 nM; in [7] (SW-620, Colon, 48 h) it was more than 100000 nM. For the same compound, the GI50 in data set [1] (Homo sapiens) was found to be 1320 nM; in [2] (Homo sapiens) it was 30 nM; in [3] (Homo sapiens, MDA-MB-435, 48 h) it was 560 nM; in data set [4], 490 nM; in [5] (Homo sapiens, NCI-H460, 48 h), 680 nM; in data set [6] (Homo sapiens, RPMI-8226, 48 h), 120 nM. Further, it took 1520 nM to inhibit growth in data set [7] (Homo sapiens, SW-620, 48 h) by half (GI50). Moreover, the CC50 in data set [1] (setting [10]) is 24400 nM; in [2] (setting [10]) it was 13900 nM; in data set [3] (Homo sapiens, MDA-MB-435, 48 h) it was 9800 nM; in data set [4] (read-out: LC50) it was more than 100000 nM; in [5] (Homo sapiens, NCI-H460, 48 h), 38600 nM; in [6] (Homo sapiens, RPMI-8226, 48 h), more than 100000 nM. For the same compound, the CC50 in data set [7] (Homo sapiens, SW-620, 48 h) is more than 100000 nM.
Consider `CC(=O)C=CSc1nc(N)nc2nc[nH]c12` [trans-AVTG, 6-(2-acetylvinylthio) guanine], for which the GI50 in data set [3] (MDA-MB-435, Breast, 48 h) was 1040 nM; in data set [5] (setting [11]) it was 590 nM; in data set [8] (Melanoma, 48 h) it was 370 nM; in data set [9] it was 20 nM; in data set [6] (RPMI-8226, Leukemia, 48 h), 240 nM; in [7] (SW-620, Colon, 48 h) it was 1130 nM. In addition, the TGI in [3] (MDA-MB-435, Breast, 48 h) is 12900 nM; in [5] (setting [11]), 3570 nM; in data set [8] (Melanoma, 48 h), 3070 nM; in [9], 50 nM; in [6] (RPMI-8226, Leukemia, 48 h) it was 3190 nM; in [7] (SW-620, Colon, 48 h) it was 6500 nM. The CC50 in [3] (MDA-MB-435, Breast, 48 h) is 51500 nM; in data set [5] (setting [11]), 49400 nM; in data set [8] (read-out: LC50, Melanoma, 48 h), 29300 nM; in data set [9] (read-out: LC50), 8280 nM; in data set [6] (RPMI-8226, Leukemia, 48 h) it was more than 100000 nM; in data set [7] (SW-620, Colon, 48 h), more than 100000 nM.
